Results reported in PubChem BioAssay AID1919000 (Molecular Pharmacology Branch, DTP, NCI, 2023).

System: 653999-131-R-J2-PDC complex spheroids, growth % test/control
Experiment: Anticancer human tumor 653999-131-R-J2-PDC patient-derived lung adenocarcinoma cell line growth inhibition [AhR]
Settings: for IC50: curve of first compound; for viability, T/C: stronger effect = lower value
Summary of the method: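 Spheroids combined tumor cells with HUVEC endothelial cells and human MSCs as stroma. AhR antagonists were paired with standard or investigational drugs, each dosed in half-log steps down from near clinical Cmax, or from 10 microM where Cmax was unknown.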

[1] = second compound 0.1 µM, first compound 0.0316 µM
[2] = second compound 0.1 µM, first compound 0.1 µM
[3] = second compound 0.1 µM, first compound 0.316 µM
[4] = second compound 0.1 µM, first compound 1 µM
[5] = second compound 0.1 µM, first compound 3.16 µM
[6] = second compound 0.1 µM, first compound 10 µM
[7] = second compound 0.316 µM, first compound 0.0316 µM
[8] = second compound 0.316 µM, first compound 0.1 µM
[9] = second compound 0.316 µM, first compound 0.316 µM
[10] = second compound 0.316 µM, first compound 1 µM
[11] = second compound 0.316 µM, first compound 3.16 µM
[12] = second compound 0.316 µM, first compound 10 µM
[13] = second compound 1 µM, first compound 0.0316 µM
[14] = second compound 1 µM, first compound 0.1 µM
[15] = second compound 1 µM, first compound 0.316 µM
[16] = second compound 1 µM, first compound 1 µM
[17] = second compound 1 µM, first compound 3.16 µM
[18] = second compound 1 µM, first compound 10 µM
[19] = second compound 3.16 µM, first compound 0.0316 µM
[20] = second compound 3.16 µM, first compound 0.1 µM
[21] = second compound 3.16 µM, first compound 0.316 µM
[22] = second compound 3.16 µM, first compound 1 µM
[23] = second compound 3.16 µM, first compound 3.16 µM
[24] = second compound 3.16 µM, first compound 10 µM
[25] = second compound 10 µM, first compound 0.0316 µM
[26] = second compound 10 µM, first compound 0.1 µM
[27] = second compound 10 µM, first compound 0.316 µM
[28] = second compound 10 µM, first compound 1 µM
[29] = second compound 10 µM, first compound 3.16 µM
[30] = second compound 10 µM, first compound 10 µM
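Further: spheroids exposed to agents for seven days.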
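Wherever viability, T/C is given: 100% = DMSO vehicle control viability.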

`O=C(C=Cc1cccc(S(=O)(=O)Nc2ccccc2)c1)NO` + Cc1ccccc1N=Nc1ccc(NC(=O)c2ccnn2C)c(C)c1 was tested, and the IC50 (second compound 0.1 µM) was 3.9 µM, the IC50 (second compound 0.316 µM) was 3.26 µM and the IC50 (second compound 1 µM) was 3.56 µM. The IC50 (second compound 3.16 µM) was 3.25 µM, the IC50 (second compound 10 µM) was 2.86 µM and the viability, T/C [1] was 110%. For the same compound, the viability, T/C [2] was 105%, the viability, T/C [3] was 91.4% and the viability, T/C [4] was 94.7%. For the same compound, the viability, T/C [5] was 56.6%, the viability, T/C [6] was 11.3% and the viability, T/C [7] was 92.8%. For the same compound, the viability, T/C [8] was 94.8%, the viability, T/C [9] was 88% and the viability, T/C [10] was 90.6%. The viability, T/C [11] was 51.1%, the viability, T/C [12] was 9.29% and the viability, T/C [13] was 99.7%. It also gave a viability, T/C [14] of 101%, a viability, T/C [15] of 93.2% and a viability, T/C [16] of 80.2%. For the same compound, the viability, T/C [17] was 54.9%, the viability, T/C [18] was 10.3% and the viability, T/C [19] was 101%. For the same compound, the viability, T/C [20] was 93.1%, the viability, T/C [21] was 99% and the viability, T/C [22] was 81.5%. The viability, T/C [23] was 51.4%, the viability, T/C [24] was 10.1% and the viability, T/C [25] was 82.6%. The viability, T/C [26] was 85.5%, the viability, T/C [27] was 76.7% and the viability, T/C [28] was 71.8%. For the same compound, the viability, T/C [29] was 47.8% and the viability, T/C [30] was 7.74%.
`COc1ccc([C@@H](O)c2cc(-c3ncnc4cc(N5CCOCC5)ccc34)c(F)cc2Cl)nn1` + Cc1ccccc1N=Nc1ccc(NC(=O)c2ccnn2C)c(C)c1 was tested, and the IC50 (second compound 0.1 µM) was 9.88 µM, the IC50 (second compound 0.316 µM) was over 10 µM and the IC50 (second compound 1 µM) was over 10 µM. It also gave an IC50 (second compound 3.16 µM) of over 10 µM, an IC50 (second compound 10 µM) of 7.77 µM and a viability, T/C [1] of 101%. It also gave a viability, T/C [2] of 105%, a viability, T/C [3] of 88.7% and a viability, T/C [4] of 74.2%. For the same compound, the viability, T/C [5] was 66%, the viability, T/C [6] was 48.6% and the viability, T/C [7] was 114%. The viability, T/C [8] was 114%, the viability, T/C [9] was 88.7% and the viability, T/C [10] was 83.6%. For the same compound, the viability, T/C [11] was 65%, the viability, T/C [12] was 51.8% and the viability, T/C [13] was 96%. The viability, T/C [14] was 94.5%, the viability, T/C [15] was 109% and the viability, T/C [16] was 87.6%. For the same compound, the viability, T/C [17] was 62.8%, the viability, T/C [18] was 54.9% and the viability, T/C [19] was 96%. It also gave a viability, T/C [20] of 107%, a viability, T/C [21] of 98.7% and a viability, T/C [22] of 88.1%. For the same compound, the viability, T/C [23] was 67.9%, the viability, T/C [24] was 54.5% and the viability, T/C [25] was 89.5%. For the same compound, the viability, T/C [26] was 101%, the viability, T/C [27] was 95.1% and the viability, T/C [28] was 83.6%. It also gave a viability, T/C [29] of 70.9% and a viability, T/C [30] of 44.2%.
With `Nc1ncn(C2CC(O)C(CO)O2)c(=O)n1` (stereo not given) + Cc1cncc(-c2nc(NCCc3c[nH]c4ccccc34)c3ncn(C(C)C)c3n2)c1 the IC50 (second compound 0.1 µM) was over 1 µM, the IC50 (second compound 0.316 µM) was over 1 µM and the IC50 (second compound 1 µM) was over 1 µM. For the same compound, the IC50 (second compound 3.16 µM) was over 1 µM, the IC50 (second compound 10 µM) was 0.21 µM and the viability, T/C (second compound 0.1 µM, first compound 0.00316 µM) was 96.2%. For the same compound, the viability, T/C (second compound 0.1 µM, first compound 0.01 µM) was 86.1%, the viability, T/C [1] was 92.3% and the viability, T/C [2] was 86.5%. It also gave a viability, T/C [3] of 88.2%, a viability, T/C [4] of 77.5% and a viability, T/C (second compound 0.316 µM, first compound 0.00316 µM) of 91.2%. For the same compound, the viability, T/C (second compound 0.316 µM, first compound 0.01 µM) was 94%, the viability, T/C [7] was 90.8% and the viability, T/C [8] was 85.1%. The viability, T/C [9] was 87.7%, the viability, T/C [10] was 83.6% and the viability, T/C (second compound 1 µM, first compound 0.00316 µM) was 106%. It also gave a viability, T/C (second compound 1 µM, first compound 0.01 µM) of 108%, a viability, T/C [13] of 99.2% and a viability, T/C [14] of 99.2%. It also gave a viability, T/C [15] of 94.1%, a viability, T/C [16] of 82% and a viability, T/C (second compound 3.16 µM, first compound 0.00316 µM) of 98.7%. It also gave a viability, T/C (second compound 3.16 µM, first compound 0.01 µM) of 95.2%, a viability, T/C [19] of 106% and a viability, T/C [20] of 98.3%. It also gave a viability, T/C [21] of 96.9%, a viability, T/C [22] of 90.2% and a viability, T/C (second compound 10 µM, first compound 0.00316 µM) of 54.6%. For the same compound, the viability, T/C (second compound 10 µM, first compound 0.01 µM) was 52.4%, the viability, T/C [25] was 54% and the viability, T/C [26] was 51.9%. The viability, T/C [27] was 49.2% and the viability, T/C [28] was 47.2%.
In the case of `CC1COCCN1c1cc(C2(S(C)(=N)=O)CC2)nc(-c2ccnc3[nH]ccc23)n1` (stereo not given) + CC(CO)NC(=O)c1cc(-c2ccc(Cl)cc2)nn(-c2cnn(C)c2)c1=O, the IC50 (second compound 0.1 µM) is reported as 8.97 µM, the IC50 (second compound 0.316 µM) is reported as over 10 µM and the IC50 (second compound 1 µM) is reported as over 10 µM. It also gave an IC50 (second compound 3.16 µM) of 7.88 µM, an IC50 (second compound 10 µM) of 3.94 µM and a viability, T/C [1] of 102%. The viability, T/C [2] was 97.6%, the viability, T/C [3] was 97.8% and the viability, T/C [4] was 87.3%. For the same compound, the viability, T/C [5] was 75.2%, the viability, T/C [6] was 47.1% and the viability, T/C [7] was 101%. For the same compound, the viability, T/C [8] was 95.6%, the viability, T/C [9] was 103% and the viability, T/C [10] was 83.3%. The viability, T/C [11] was 71.3%, the viability, T/C [12] was 52.6% and the viability, T/C [13] was 101%. The viability, T/C [14] was 95.4%, the viability, T/C [15] was 101% and the viability, T/C [16] was 91%. The viability, T/C [17] was 73.9%, the viability, T/C [18] was 51.5% and the viability, T/C [19] was 92.7%. The viability, T/C [20] was 107%, the viability, T/C [21] was 100% and the viability, T/C [22] was 88.8%. For the same compound, the viability, T/C [23] was 55.6%, the viability, T/C [24] was 48.5% and the viability, T/C [25] was 111%. For the same compound, the viability, T/C [26] was 98.5%, the viability, T/C [27] was 100% and the viability, T/C [28] was 78%. For the same compound, the viability, T/C [29] was 51.5% and the viability, T/C [30] was 41.8%.
